Consider ten compounds from patent publication US11312706B2, “Cyclohexyl acid pyrazole azines as LPA antagonists” (BRISTOL-MYERS SQUIBB COMPANY, priority 2017, dated 2022).

In general, IC50 refers to the point on the concentration scale where inhibition reaches its midpoint.

In assay [1] the test system is pancreatic cancer cell lines. The note with it: ascites from pancreatic cancer patients; cited from earlier work.
In assay [2] the test system is highly peritoneal metastatic pancreatic cancer cell line. The note with it: cited from earlier work.
Assay [3] relates to mouse epithelial renal cell line, MCT. The note with it: MCT cells, co-treatment with LPA; cited from earlier work.
Assay [4] relates to human foetal lung fibroblasts. The note with it: bronchoalveolar lavage samples of IPF subjects; cited from earlier work.
The subject of assay [5] is UUO mice. Particulars: cited from earlier work.
For assay [6], the system named is IPF patients. The note with it: 26 weeks; cited from earlier work.
Assay [7] concerns the target T1, human LPA1 (Homo sapiens, UniProt Q92633).
T1 construct: expressed in transfected cells; host or cells: Chinese hamster ovary (CHO) cells
Description: LPA1 functional antagonist assay (LPA-induced calcium flux). Type of assay: cell-based. Particulars: CHO cells overexpressing human LPA1, 10 nM LPA, read-out: hLPA1 IC50. Here is the method:
The effectiveness of compounds of the present invention as LPA1 inhibitors can be determined in an LPA1 functional antagonist assay as follows:
Chinese hamster ovary cells overexpressing human LPA1 were plated overnight (15,000 cells/well) in poly-D-lysine coated 384-well microplates (Greiner bio-one, Cat #781946) in DMEM/F12 medium (Gibco, Cat #11039). Following overnight culture, cells were loaded with calcium indicator dye (AAT Bioquest Inc, Cat #34601) for 30 minutes at 37° C. The cells were then equilibrated to room temperature for 30 minutes before the assay. Test compounds solubilized in DMSO were transferred to 384 well non-binding surface plates (Corning, Cat #3575) using the Labcyte Echo acoustic dispense and diluted with assay buffer [1×HBSS with calcium/magnesium (Gibco Cat #14025-092), 20 mM HEPES (Gibco Cat #15630-080) and 0.1% fatty acid free BSA (Sigma Cat #A9205)] to a final concentration of 0.5% DMSO. Diluted compounds were added to the cells by FDSS6000 (Hamamatsu) at final concentrations ranging from 0.08 nM to 5 μM. and were then incubated for 20 min at room temperature at which time LPA (Avanti Polar Lipids Cat #857130C) was added at final concentrations of 10 nM to stimulate the cells. The compound IC50 value was defined as the concentration of test compound which inhibited 50% of the calcium flux induced by LPA alone. IC50 values were determined by fitting data to a 4-parameter logistic equation (GraphPad Prism, San Diego Calif.).
On the technique in general: Calcium assays in cells follow changes in intracellular calcium, usually with a dye or a luminescent sensor.

In assay [8] the test system is nerve-injured mice. Particulars: pretreatment; cited from earlier work.

The structures appear in SMILES notation.

T1 sequence (Q92633 whole entry): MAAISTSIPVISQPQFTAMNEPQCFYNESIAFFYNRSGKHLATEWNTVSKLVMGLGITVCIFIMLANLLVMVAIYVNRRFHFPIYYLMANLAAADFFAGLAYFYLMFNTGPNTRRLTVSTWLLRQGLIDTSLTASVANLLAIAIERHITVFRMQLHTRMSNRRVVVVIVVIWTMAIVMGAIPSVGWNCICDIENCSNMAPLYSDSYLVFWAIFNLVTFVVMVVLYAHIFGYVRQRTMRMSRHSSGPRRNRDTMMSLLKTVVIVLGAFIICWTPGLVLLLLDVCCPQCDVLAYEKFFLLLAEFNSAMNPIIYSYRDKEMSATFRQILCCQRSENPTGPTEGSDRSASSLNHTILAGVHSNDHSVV

Turning to `Cc1noc(-c2ccc(CSCCC(=O)O)cc2)c1NC(=O)OC(C)c1ccccc1Cl` (centres unmarked) [Ki16425], the “in vitro migration in response to LPA and peritoneal fluid (ascites)” value in assay [1] is given as “effectively blocked”. Also, in assay [2], the “LPA-induced and ascites-induced invasion activity” value is on record as “blocked”. Besides, the “induction of CTGF expression by LPA” value in assay [3] was “almost completely suppressed”. In addition, the fibroblast chemotactic activity result in assay [4] is “inhibited”. In assay [5], the “development of renal fibrosis, profile” value is “closely resembled the profile of LPA1 (−/−) mice”.

With `Cc1noc(-c2ccc(-c3ccc(C4(C(=O)O)CC4)cc3)cc2)c1NC(=O)O[C@H](C)c1ccccc1` [BMS-986020], the “rate of FVC (forced vital capacity) decline” value in assay [6] is on record as “significantly reduce the rate of FVC (forced vital capacity) decline”.

With `CCOc1ccnc(N(C)Cc2c(-c3ncc(O[C@H]4CCC[C@H](C(=O)O)C4)cn3)cnn2C)n1` [Example 29], the IC50 in assay [7] stood at 151 nM.

Consider `CCOc1ccnc(NCc2c(-c3ncc(O[C@H]4CCC[C@H](C(=O)O)C4)c(C)n3)cnn2C)n1` [Example 3, (1S,3S)-3-((2-(5-(((4-ethoxypyrimidin-2-yl)amino)methyl)-1-methyl-1H-pyrazol-4-yl)-4-methyl-pyrimidin-5-yl)oxy)cyclohexane-1-carboxylic acid], for which the IC50 in assay [7] came out at 22 nM.

Regarding `C[C@@H](N)[C@H]1CC[C@H](C(=O)Nc2ccncc2)CC1` [Example Y-27632], the allodynia and hyperalgesia result in assay [8] is recorded as “completely abolished”.

`Cc1nc(-c2cnn(C)c2CNc2nccc(OC3CC(F)(F)C3)n2)ncc1O[C@H]1CCC[C@H](C(=O)O)C1` [Example 31, (1S,3S)-3-((2-(5-(((4-(3,3-difluorocyclobutoxy)pyrimidin-2-yl)amino)methyl)-1-methyl-1H-pyrazol-4-yl)-4-methylpyrimidin-5-yl)oxy)cyclohexane-1-carboxylic acid]: the IC50 in assay [7] was 122 nM.

As for `CCCc1ccnc(Nc2c(-c3ncc(O[C@H]4CCC[C@H](C(=O)O)C4)c(C)n3)cnn2C)n1` [Example 19, (1S,3S)-3-((4-methyl-2-(1-methyl-5-((4-propylpyrimidin-2-yl)amino)-1H-pyrazol-4-yl)pyrimidin-5-yl)oxy)cyclohexane-1-carboxylic acid], in assay [7], the IC50 was 1410 nM.

For `CCc1nc(-c2cnn(C)c2CNc2nccc(OCCCF)n2)ncc1O[C@H]1CCC[C@H](C(=O)O)C1` [Example 25, (1S,3S)-3-((4-ethyl-2-(5-(((4-(3-fluoropropoxy)pyrimidin-2-yl)amino)methyl)-1-methyl-1H-pyrazol-4-yl)pyrimidin-5-yl)oxy)cyclohexane-1-carboxylic acid], in assay [7], the IC50 is 18 nM.

In the case of `Cc1nc(-c2cnn(C)c2CNc2nccc(Oc3ccccc3)n2)ncc1O[C@H]1CCC[C@H](C(=O)O)C1` [Example 9, (1S,3S)-3((4-methyl-2-(1-methyl-5-(((4-phenoxypyrimidin-2-yl)amino)-methyl)-1H-pyrazol-4-yl)pyrimidin-5-yl)oxy)cyclohexane-1-carboxylic acid], the IC50 in assay [7] came out at 32 nM.

As to `Cc1nc(-c2cnn(C)c2CNc2nccc(OCC(C)F)n2)ncc1O[C@H]1CCC[C@H](C(=O)O)C1` (stereo partly drawn) [Example 33, (1S,3S)-3-((2-(5-(((4-(2-fluoropropoxy)pyrimidin-2-yl)amino)methyl)-1-methyl-1H-pyrazol-4-yl)-4-methylpyrimidin-5-yl)oxy)cyclohexane-1-carboxylic acid], the IC50 in assay [7] stood at 21 nM.
